Measured values as given in the supplement of paper PMC10307832.

These cell lines were tested with CN1CCN(CC1)C2=CC(=C(C=C2)NC3=NC=C4C(=N3)N(C5=CC=CC=C5C(=O)N4C)C)OC [XMD8-85] + Nc1ncn([C@H]2C[C@H](O)[C@@H](CO)O2)c(=O)n1 [Decitabine] (partner 2 µM) (assay: relative viability (nuclei count vs DMSO), 5 days (fraction); higher = more cells survive). Settings: first compound 8 µM.
Summary of the method: (§1)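 Relative viability is defined as nuclei in treated wells over nuclei in vehicle wells. Duplicate plates were run and medians reported. Lung cancer cell lines in 1536-well plates were dosed by pin tool one day after seeding, with one drug or with a fixed anchor-drug dose plus five library-drug doses (not always all listed) in √10 steps, and nuclei were counted after 5 days.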

Compared with NCI-H522, NCI-H1395 is higher in relative viability: 0.635 for the first, 0.716 for the second.

First: NCI-H1648
Second: NCI-H1793
The relative viability of the first is lower: 0.561 for the first, 0.583 for the second.

Compared with NCI-H1944, NCI-H2170 is higher in relative viability: 0.422 for the first, 0.484 for the second.

Compared with NCI-H2342, SK-MES-1 is lower in relative viability: 0.867 for the first, 0.3 for the second.

SW 900 gave a relative viability of 0.506.

Each cell line was assayed with O=C(O)C(Cc1ccccc1[N+](=O)[O-])=NNc1nc(-c2ccc(Cl)c(Cl)c2)cs1 (mixture of isomers) [4EGI-1] + C[C@@H](Oc1cc(-c2cnn(C3CCNCC3)c2)cnc1N)c1c(Cl)ccc(F)c1Cl [Crizotinib] (partner 1 µM) in the same assay as above. Settings: first compound 0.5 µM.
Summary of the method: as §1

Compared with 201T, A549 is lower in relative viability: 1.06 for the first, 0.742 for the second.

Compared with A-427, ABC-1 is higher in relative viability: 1.02 for the first, 1.23 for the second.

First: BEN
Second: CAL-12T
The relative viability of the first is higher: 1.07 for the first, 0.663 for the second.

Going from COR-L23 to COR-L 105, the relative viability rises from 0.687 to 0.722.

Compared with Calu-6, ChaGo-K-1 is higher in relative viability: 0.796 for the first, 1.23 for the second.

Going from EBC-1 to EKVX, the relative viability rises from 0.205 to 1.01.

First: EMC-BAC-2
Second: EPLC-272H
The relative viability of the first is lower: 0.776 for the first, 0.929 for the second.

Going from H3255 to HARA, the relative viability falls from 1.14 to 1.06.

Compared with HCC-15, HCC-44 is higher in relative viability: 0.831 for the first, 0.841 for the second.

Going from HCC-78 to HCC-366, the relative viability rises from 0.365 to 0.641.

Compared with HCC-827, HOP-62 is lower in relative viability: 0.935 for the first, 0.667 for the second.

Compared with IA-LM, LC-2-ad is lower in relative viability: 0.903 for the first, 0.433 for the second.

Compared with LCLC-97TM1, LCLC-103H is higher in relative viability: 0.445 for the first, 1.05 for the second.

First: LK-2
Second: NCI-H358
The relative viability of the first is lower: 0.244 for the first, 0.566 for the second.

Going from NCI-H1299 to NCI-H1563, the relative viability falls from 0.98 to 0.905.

First: NCI-H1703
Second: NCI-H1944
The relative viability of the first is lower: 0.754 for the first, 1.18 for the second.

Compared with NCI-H2170, NCI-H2228 is lower in relative viability: 1.24 for the first, 0.416 for the second.

SK-MES-1 was tested, and the relative viability was 1.04.

Same assay, conditions: first compound 1.581 µM

Going from 201T to A549, the relative viability falls from 0.98 to 0.683.

First: A-427
Second: ABC-1
The relative viability of the first is higher: 0.728 for the first, 0.7 for the second.

Going from BEN to COR-L23, the relative viability falls from 1.1 to 0.412.

Going from COR-L 105 to Calu-6, the relative viability rises from 0.626 to 0.756.

First: EBC-1
Second: EKVX
The relative viability of the first is lower: 0.247 for the first, 0.759 for the second.

Going from EMC-BAC-2 to EPLC-272H, the relative viability falls from 0.594 to 0.505.

First: H3255
Second: HARA
The relative viability of the first is lower: 0.573 for the first, 1.07 for the second.

Going from HCC-15 to HCC-44, the relative viability falls from 0.893 to 0.6.

First: HCC-78
Second: HCC-366
The relative viability of the first is lower: 0.258 for the first, 0.277 for the second.

First: HCC-827
Second: IA-LM
The relative viability of the first is higher: 0.819 for the first, 0.629 for the second.

Compared with LCLC-103H, NCI-H358 is lower in relative viability: 0.926 for the first, 0.413 for the second.

First: NCI-H1299
Second: NCI-H1563
The relative viability of the first is higher: 1 for the first, 0.742 for the second.

Compared with NCI-H1703, NCI-H2170 is higher in relative viability: 0.597 for the first, 1.15 for the second.

Compared with NCI-H2228, SK-MES-1 is higher in relative viability: 0.508 for the first, 0.957 for the second.

Same assay, conditions: first compound 5 µM

Compared with 201T, A549 is lower in relative viability: 1.01 for the first, 0.787 for the second.

Compared with A-427, ABC-1 is higher in relative viability: 0.791 for the first, 1.09 for the second.

Compared with BEN, CAL-12T is lower in relative viability: 0.885 for the first, 0.742 for the second.

Going from COR-L23 to COR-L 105, the relative viability rises from 0.64 to 0.789.

Going from Calu-6 to ChaGo-K-1, the relative viability rises from 0.854 to 1.15.

Compared with EBC-1, EKVX is higher in relative viability: 0.162 for the first, 1.14 for the second.

Compared with EMC-BAC-2, EPLC-272H is higher in relative viability: 0.706 for the first, 1.03 for the second.

Compared with H3255, HARA is higher in relative viability: 0.856 for the first, 1.03 for the second.

Compared with HCC-15, HCC-44 is lower in relative viability: 0.858 for the first, 0.8 for the second.

First: HCC-78
Second: HCC-366
The relative viability of the first is lower: 0.371 for the first, 0.605 for the second.

First: HCC-827
Second: HOP-62
The relative viability of the first is lower: 0.868 for the first, 0.938 for the second.

Going from IA-LM to LC-2-ad, the relative viability falls from 0.569 to 0.451.

Compared with LCLC-97TM1, LCLC-103H is higher in relative viability: 0.397 for the first, 0.937 for the second.

First: LK-2
Second: NCI-H358
The relative viability of the first is lower: 0.253 for the first, 0.645 for the second.

Going from NCI-H1299 to NCI-H1563, the relative viability falls from 0.914 to 0.857.

Going from NCI-H1703 to NCI-H1944, the relative viability rises from 0.681 to 1.01.

Compared with NCI-H2170, NCI-H2228 is lower in relative viability: 1.15 for the first, 0.653 for the second.

With SK-MES-1 the relative viability was 1.02.

Same assay, conditions: first compound 15.81 µM

Going from 201T to A549, the relative viability falls from 1.01 to 0.669.

Compared with A-427, ABC-1 is lower in relative viability: 0.822 for the first, 0.472 for the second.

Going from BEN to CAL-12T, the relative viability falls from 0.821 to 0.618.

Going from COR-L23 to COR-L 105, the relative viability rises from 0.521 to 0.887.

Going from Calu-6 to ChaGo-K-1, the relative viability rises from 0.834 to 0.961.

Going from EBC-1 to EKVX, the relative viability rises from 0.183 to 0.874.

First: EMC-BAC-2
Second: EPLC-272H
The relative viability of the first is lower: 0.627 for the first, 0.94 for the second.

Going from H3255 to HARA, the relative viability rises from 0.612 to 0.906.

Compared with HCC-15, HCC-44 is lower in relative viability: 0.776 for the first, 0.656 for the second.

Compared with HCC-78, HCC-366 is higher in relative viability: 0.286 for the first, 0.506 for the second.

First: HOP-62
Second: IA-LM
The relative viability of the first is higher: 0.89 for the first, 0.112 for the second.

Compared with LC-2-ad, LCLC-97TM1 is lower in relative viability: 0.343 for the first, 0.302 for the second.

Compared with LCLC-103H, LK-2 is lower in relative viability: 0.857 for the first, 0.256 for the second.

First: NCI-H358
Second: NCI-H1299
The relative viability of the first is lower: 0.378 for the first, 0.973 for the second.

First: NCI-H1563
Second: NCI-H1703
The relative viability of the first is higher: 0.81 for the first, 0.521 for the second.

Compared with NCI-H1944, NCI-H2170 is lower in relative viability: 0.981 for the first, 0.902 for the second.

First: NCI-H2228
Second: SK-MES-1
The relative viability of the first is lower: 0.502 for the first, 0.872 for the second.

Same assay, conditions: first compound 50 µM

Compared with 201T, A549 is lower in relative viability: 1.02 for the first, 0.0783 for the second.

Compared with A-427, ABC-1 is lower in relative viability: 0.424 for the first, 0.259 for the second.

Going from BEN to CAL-12T, the relative viability falls from 0.796 to 0.281.

Compared with COR-L23, COR-L 105 is higher in relative viability: 0.141 for the first, 0.784 for the second.

Compared with Calu-6, ChaGo-K-1 is higher in relative viability: 0.201 for the first, 0.553 for the second.

Compared with EBC-1, EKVX is higher in relative viability: 0.224 for the first, 0.936 for the second.

First: EMC-BAC-2
Second: EPLC-272H
The relative viability of the first is lower: 0.306 for the first, 0.947 for the second.

Compared with H3255, HARA is lower in relative viability: 0.541 for the first, 0.212 for the second.
